ChEMBL document CHEMBL1201862, “PubChem BioAssay data set” (2004)
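Tested at 5 concentrations; 48 h exposure; 96-well plates; endpoints linearly interpolated, else capped at highest concentration. At the GI50, growth is halved.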 Activity calls are given as the source filed them. No stated cut-off is given here; in the data, active = GI50 up to about 1.1 µM and inactive = higher.

What was measured:
Experiment in all cases: NCI anticancer screen, dose series, 48 h
786-0 = system: 786-0
CAKI-1 = system: CAKI-1
DU-145 = system: DU-145
IGROV-1 = system: IGROV-1
K562 = system: K562
KM12 = system: KM12
MDA-MB-231 = system: MDA-MB-231
MDA-MB-435 = system: MDA-MB-435
NCI-H226 = system: NCI-H226
NCI-H460 = system: NCI-H460
NCI-H522 = system: NCI-H522
OVCAR-3 = system: OVCAR-3
OVCAR-5 = system: OVCAR-5
PC-3 = system: PC-3
RPMI-8226 = system: RPMI-8226
SF-268 = system: SF-268
SNB-19 = system: SNB-19
TK-10 = system: TK-10

Structure (SMILES) | GI50 (786-0) | GI50 (CAKI-1) | GI50 (DU-145) | GI50 (IGROV-1) | GI50 (K562) | GI50 (KM12) | GI50 (MDA-MB-231) | GI50 (MDA-MB-435) | GI50 (NCI-H226) | GI50 (NCI-H460) | GI50 (NCI-H522) | GI50 (OVCAR-3) | GI50 (OVCAR-5) | GI50 (PC-3) | GI50 (RPMI-8226) | GI50 (SF-268) | GI50 (SNB-19) | GI50 (TK-10)
CC(=O)NC1=C(OS(=O)(=O)c2ccc(C)cc2)CN(C)C1=O | 3.79 µM (inactive) | 3.86 µM (inactive) | 4.2 µM (inactive) | 3.39 µM (inactive) | 3.61 µM (inactive) | 3.92 µM (inactive) | 7.82 µM (inactive) | 4.26 µM (inactive) | 8.73 µM (inactive) | 2.37 µM (inactive) | 2.82 µM (inactive) | 2.74 µM (inactive) | 16.7 µM (inactive) | 2.84 µM (inactive) | 1.59 µM (inactive) | 5.04 µM (inactive) | 3.43 µM (inactive) | 1.94 µM (inactive)
O=[N+]([O-])/C=C/c1c(Cl)cccc1Cl | 0.809 µM (active) | 3.66 µM (inactive) | 9.06 µM (inactive) | 3.65 µM (inactive) | 1.68 µM (inactive) | 1.58 µM (inactive) | 1.91 µM (inactive) | 1.77 µM (inactive) | 10 µM (inactive) | 2.61 µM (inactive) | 1.61 µM (inactive) | 1.3 µM (inactive) | 8.95 µM (inactive) | 1.77 µM (inactive) | 0.838 µM (active) | 4.32 µM (inactive) | 5.28 µM (inactive) | 2.67 µM (inactive)
O=C1c2ccccc2C(=O)N1c1ccc(Cc2ccc(N3C(=O)c4ccccc4C3=O)cc2)cc1 | > 100 µM (inactive) | > 100 µM (inactive) | > 100 µM (inactive) | > 100 µM (inactive) | 0.853 µM (active) | > 100 µM (inactive) | > 100 µM (inactive) | > 100 µM (inactive) | > 100 µM (inactive) | > 100 µM (inactive) | > 100 µM (inactive) | > 21.9 µM (inactive) | > 100 µM (inactive) | > 100 µM (inactive) | > 100 µM (inactive) | > 100 µM (inactive) | > 100 µM (inactive) | > 100 µM (inactive)
C=C1c2nc3ccccc3n2C=C(c2ccc(OC)cc2)N1c1ccc(OCCN2CCCCC2)cc1 | 14.2 µM (inactive) | 13.4 µM (inactive) | 13.1 µM (inactive) | 12.4 µM (inactive) | 4.83 µM (inactive) | 8 µM (inactive) | 19.8 µM (inactive) | 8.69 µM (inactive) | 28.2 µM (inactive) | 2.47 µM (inactive) | > 100 µM (inactive) | 19.9 µM (inactive) | > 74.1 µM (inactive) | 15.2 µM (inactive) | 2.9 µM (inactive) | > 30.4 µM (inactive) | 11.3 µM (inactive) | 14.8 µM (inactive)
CC(C)NC(=O)OCc1c(COC(=O)NC(C)C)n(C)c2c1ccc1sccc12 | 6.35 µM (inactive) | 4.8 µM (inactive) | 6.78 µM (inactive) | 3.02 µM (inactive) | 23.4 µM (inactive) | 15 µM (inactive) | 20.1 µM (inactive) | 13.2 µM (inactive) | 2.67 µM (inactive) | 5.33 µM (inactive) | 3.65 µM (inactive) | 15.7 µM (inactive) | 30.6 µM (inactive) | 11.5 µM (inactive) | 9.73 µM (inactive) | 6.18 µM (inactive) | 20.8 µM (inactive) | 18.6 µM (inactive)
COc1cc(C[C@@]2(C)[C@@H]3CCC[C@H](CO)[C@@]3(C)CC[C@@H]2C)c(Cl)c(OC)c1 | 15.7 µM (inactive) | 16.2 µM (inactive) | 16.4 µM (inactive) | 14.7 µM (inactive) | 16.3 µM (inactive) | 18.2 µM (inactive) | 16.4 µM (inactive) | 13.7 µM (inactive) | 15.8 µM (inactive) | 16.8 µM (inactive) | 14.7 µM (inactive) | 15.3 µM (inactive) | 18.3 µM (inactive) | 14.2 µM (inactive) | 20.2 µM (inactive) | 14.9 µM (inactive) | 18.6 µM (inactive) | 19.5 µM (inactive)
C/C(=C/CO[Si](C)(C)C(C)(C)C)C(=O)N(C)c1ccccc1I | 17.1 µM (inactive) | 15.6 µM (inactive) | 18.2 µM (inactive) | 16 µM (inactive) | 19.8 µM (inactive) | 16.5 µM (inactive) | 15.1 µM (inactive) | 17.2 µM (inactive) | 16.4 µM (inactive) | 14.7 µM (inactive) | 15.6 µM (inactive) | 15.9 µM (inactive) | 14.2 µM (inactive) | 14.1 µM (inactive) | 19.4 µM (inactive) | 17.5 µM (inactive) | 16.6 µM (inactive) | 18.7 µM (inactive)
